Literature values as cited in patent US6972278B2, “Laundry detergent gel with suspended particles” (Unilever Home & Personal Care USA division of Conopco, Inc., priority 2004, dated 2005).

Settings: by fatty acid chain length; cited from Langmuir, Vol 16, pp 172-177, 2000

Row | SMILES | Measured pKa value
1 | CCCCCCCC(=O)O [Example 8] | 6.3~6.5
2 | CCCCCCCCCC(=O)O [Example 10] | 7.1~7.3
3 | CCCCCCCCCCCCCC(=O)O [Example 14] | 8.1~8.2
4 | CCCCCCCCCCCC(=O)O [Example 12] | ~7.5
5 | CCCCCCCCCCCCCCCC(=O)O [Example 16] | 8.6~8.8

Same assay, conditions: by fatty acid chain length; cited from Proc. R. Soc. London, A133, 140, 1931

Row | SMILES | Measured pKa value
6 | CCCCCCCCCCCCCCCC(=O)O [Example 16] | 8.5
